In US20260365618A1 (priority 2022, published 2026):
≈ marks a conversion by molar mass, not a printed value.

Test system: F. tularensis subsp. holarctica
Experiment: microbe, parasite or virus in culture
Format: cell-based, Francisella tularensis subsp. holarctica
Details: Francisella tularensis, 48 h

SMILES | MIC50 | MIC (read-out: MIC Range)
CC[C@H]1OC(=O)[C@H](C)[C@@H](O[C@H]2C[C@@](C)(OC)[C@@H](O)[C@H](C)O2)[C@H](C)[C@@H](O[C@@H]2O[C@H](C)C[C@H](N(C)C)[C@H]2O)[C@](C)(O)C[C@@H](C)C(=O)[C@H](C)[C@@H](O)[C@]1(C)O [Erythromycin] | 8 µg/mL (≈ 10.9 µM) | 
C=C[C@]1(C)C[C@@H](OC(=O)CS[C@@H]2CC[C@@H](N)C[C@H]2O)[C@]2(C)[C@H](C)CC[C@]3(CCC(=O)[C@H]32)[C@@H](C)[C@@H]1O [Lefamulin, 14-O-{[(1R, 2R, 4R)-4-amino-2-hydroxy-cyclohexylsulfanyl]-acetyl}-mutilin] | 4 µg/mL (≈ 7.88 µM) | 0.5 to 8 µg/mL (≈ 0.985 to 15.8 µM)
